Laboratory results: ChEMBL document CHEMBL3885881, “DrugMatrix”

Organism: Rattus norvegicus
Experiment: DrugMatrix - Regimen: Daily Repeat
Format: toxicity, organism-based, Sprague-Dawley
Design: regimen Daily Repeat, gender Male, age 6-8 weeks
Conditions: in vivo, po, route oral GAVAGE, vehicle 100 % WATER; for ERYTHROCYTE COUNT / HEMATOCRIT / HEMOGLOBIN / LEUKOCYTE COUNT / MEAN CORPUSCULAR HEMOGLOBIN / MEAN CORPUSCULAR HEMOGLOBIN CONCENTRATION / MEAN CORPUSCULAR VOLUME: tissue Blood; for ALANINE AMINOTRANSFERASE / ALBUMIN / ALKALINE PHOSPHATASE / ASPARTATE AMINOTRANSFERASE / BLOOD UREA NITROGEN / CARBON DIOXIDE / CHLORIDE / CHOLESTEROL / CREATINE PHOSPHOKINASE / CREATININE / GLUCOSE / LACTATE DEHYDROGENASE / LIPASE / PHOSPHORUS / POTASSIUM / SODIUM / TOTAL BILIRUBIN / TOTAL PROTEIN / URIC ACID: tissue Plasma
[1] = 0 mg/kg, 72 h, dose level Control, time 3 day
[2] = 0 mg/kg, 120 h, dose level Control, time 5 day
[3] = 70 mg/kg, 72 h, dose level Low, time 3 day
[4] = 70 mg/kg, 120 h, dose level Low, time 5 day

COc1cc2c(N3CCN(C(=O)Nc4ccc(OC(C)C)cc4)CC3)ncnc2cc1OCCCN1CCCCC1 [TANDUTINIB]
ERYTHROCYTE COUNT [1]: 6.09 x10E6/uL | HEMATOCRIT [1]: 42.62% | HEMOGLOBIN [1]: 13.07 G/DL | LEUKOCYTE COUNT [1]: 13.95 x10E3/uL | MEAN CORPUSCULAR HEMOGLOBIN [1]: 21.47 pg | MEAN CORPUSCULAR HEMOGLOBIN CONCENTRATION [1]: 30.62 G/DL | MEAN CORPUSCULAR VOLUME [1]: 70.05 fL | ALANINE AMINOTRANSFERASE [1]: 47.67 u/L | ALBUMIN [1]: 3.8 G/DL | ALKALINE PHOSPHATASE [1]: 369 u/L | ASPARTATE AMINOTRANSFERASE [1]: 86.17 u/L | BLOOD UREA NITROGEN [1]: 16.33 mg/dL | CARBON DIOXIDE [1]: 37.33 mmol/L | CHLORIDE [1]: 104.83 MEQ/L | CHOLESTEROL [1]: 79.83 mg/dL | CREATINE PHOSPHOKINASE [1]: 392.83 u/L | CREATININE [1]: 0.68 mg/dL | GLUCOSE [1]: 153.33 mg/dL | LACTATE DEHYDROGENASE [1]: 426.17 u/L | LIPASE [1]: 11.67 u/L | PHOSPHORUS [1]: 11 mg/dL | POTASSIUM [1]: 6.72 MEQ/L | SODIUM [1]: 146.67 MEQ/L | TOTAL BILIRUBIN [1]: 0.55 mg/dL | TOTAL PROTEIN [1]: 6.32 G/DL | URIC ACID [1]: 0.0167 mg/dL | ERYTHROCYTE COUNT [2]: 6.93 x10E6/uL | HEMATOCRIT [2]: 46.82% | HEMOGLOBIN [2]: 14.23 G/DL | LEUKOCYTE COUNT [2]: 13.43 x10E3/uL | MEAN CORPUSCULAR HEMOGLOBIN [2]: 20.55 pg | MEAN CORPUSCULAR HEMOGLOBIN CONCENTRATION [2]: 30.38 G/DL | MEAN CORPUSCULAR VOLUME [2]: 67.62 fL | ALANINE AMINOTRANSFERASE [2]: 44.67 u/L | ALBUMIN [2]: 3.8 G/DL | ALKALINE PHOSPHATASE [2]: 417.83 u/L | ASPARTATE AMINOTRANSFERASE [2]: 83 u/L | BLOOD UREA NITROGEN [2]: 15.33 mg/dL | CARBON DIOXIDE [2]: 38.83 mmol/L | CHLORIDE [2]: 98.17 MEQ/L | CHOLESTEROL [2]: 66.83 mg/dL | CREATINE PHOSPHOKINASE [2]: 383.17 u/L | CREATININE [2]: 0.72 mg/dL | GLUCOSE [2]: 156.5 mg/dL | LACTATE DEHYDROGENASE [2]: 519.67 u/L | LIPASE [2]: 4.83 u/L | PHOSPHORUS [2]: 11.07 mg/dL | POTASSIUM [2]: 6.03 MEQ/L | SODIUM [2]: 138 MEQ/L | TOTAL BILIRUBIN [2]: 0.55 mg/dL | TOTAL PROTEIN [2]: 6.3 G/DL | URIC ACID [2]: 0.0833 mg/dL | ERYTHROCYTE COUNT [3]: 6.43 x10E6/uL | HEMATOCRIT [3]: 44.4% | HEMOGLOBIN [3]: 13.2 G/DL | LEUKOCYTE COUNT [3]: 8.32 x10E3/uL | MEAN CORPUSCULAR HEMOGLOBIN [3]: 20.5 pg | MEAN CORPUSCULAR HEMOGLOBIN CONCENTRATION [3]: 29.63 G/DL | MEAN CORPUSCULAR VOLUME [3]: 69.13 fL | ALANINE AMINOTRANSFERASE [3]: 47 u/L | ALBUMIN [3]: 3.87 G/DL | ALKALINE PHOSPHATASE [3]: 436.67 u/L | ASPARTATE AMINOTRANSFERASE [3]: 80.67 u/L | BLOOD UREA NITROGEN [3]: 15.33 mg/dL | CARBON DIOXIDE [3]: 37.33 mmol/L | CHLORIDE [3]: 107.67 MEQ/L | CHOLESTEROL [3]: 84.67 mg/dL | CREATINE PHOSPHOKINASE [3]: 198 u/L | CREATININE [3]: 0.67 mg/dL | GLUCOSE [3]: 163.33 mg/dL | LACTATE DEHYDROGENASE [3]: 277.33 u/L | LIPASE [3]: 14.33 u/L | PHOSPHORUS [3]: 9.63 mg/dL | POTASSIUM [3]: 6.33 MEQ/L | SODIUM [3]: 149.67 MEQ/L | TOTAL BILIRUBIN [3]: 0.47 mg/dL | TOTAL PROTEIN [3]: 6.2 G/DL | URIC ACID [3]: 0.0333 mg/dL | ERYTHROCYTE COUNT [4]: 6.62 x10E6/uL | HEMATOCRIT [4]: 44.77% | HEMOGLOBIN [4]: 13.67 G/DL | LEUKOCYTE COUNT [4]: 11.49 x10E3/uL | MEAN CORPUSCULAR HEMOGLOBIN [4]: 20.67 pg | MEAN CORPUSCULAR HEMOGLOBIN CONCENTRATION [4]: 30.6 G/DL | MEAN CORPUSCULAR VOLUME [4]: 67.7 fL | ALANINE AMINOTRANSFERASE [4]: 36.33 u/L | ALBUMIN [4]: 3.8 G/DL | ALKALINE PHOSPHATASE [4]: 323.33 u/L | ASPARTATE AMINOTRANSFERASE [4]: 69 u/L | BLOOD UREA NITROGEN [4]: 14.67 mg/dL | CARBON DIOXIDE [4]: 34.67 mmol/L | CHLORIDE [4]: 100.67 MEQ/L | CHOLESTEROL [4]: 73 mg/dL | CREATINE PHOSPHOKINASE [4]: 199 u/L | CREATININE [4]: 0.67 mg/dL | GLUCOSE [4]: 164.33 mg/dL | LACTATE DEHYDROGENASE [4]: 327 u/L | LIPASE [4]: 5.67 u/L | PHOSPHORUS [4]: 11.33 mg/dL | POTASSIUM [4]: 5.83 MEQ/L | SODIUM [4]: 139.67 MEQ/L | TOTAL BILIRUBIN [4]: 0.43 mg/dL | TOTAL PROTEIN [4]: 6.17 G/DL | URIC ACID [4]: 0.27 mg/dL
